From US8129398B2 (priority 2008, dated 2012)

target: T1, HIV-integrase (Human immunodeficiency virus type 1 group M subtype B, UniProt P12497); assay: HIV-Integrase Inhibition Activity (SPA bead integration assay with P33 labeled target DNA); type: biochemical; settings: recombinant integrase, class symbols; read-out: in vitro activity
T1 construct: Recombinant integrase (0.26 ng) was incubated with the beads
Protocol: HIV-Integrase Inhibition Activity. To evaluate in-vitro activity against HIV-integrase, 5 pmole of biotin labeled substrate DNA was bound to 100 μg of Streptavidin coated PVT SPA beads (Amersham Pharmacia Biotech). Recombinant integrase (0.26 ng) was incubated with the beads for 90 min at 37° C. Unbound enzyme was removed by washing the complex followed by addition of inhibitors and 0.1 fmol of P33 labeled target DNA. The reaction was stopped by adding EDTA to a final concentration of 10 mM. Samples were counted in TopCountNXT (Packard) and the CPM was used as a measure of integration. The reaction condition was as described in A. Engelman and R. Craigie, J. Virol. 69, 5908-5911 (1995). The sequences of substrate and target DNA were described in Nucleic Acid Research 22, 1121-1122 (1994). Activity equal to A refers to a compound having IC50=<10 nM while B and C denote compounds having […] and IC50>100 nM respectively.

Q: Which IC50 does the source give for `CN(C)C(=O)CNC12CCC(CC1)Cn1c2nc(C(=O)NCc2ccc(F)cc2)c(O)c1=O` [Example 30, 10-((2-(Dimethylamino)-2-oxoethyl)amino)-N-(4-fluorobenzyl)-3-hydroxy-4-oxo-4,6,7,8,9,0-hexahydro-7,10-ethanopyrimido[1,2-a]azepine-2-carboxamide] here?
A: 10 to 100 nM

Q: How did the IC50 turn out when `O=C(NCc1ccc(F)cc1)c1nc2n(c(=O)c1O)CC1CCC2(NC(=O)C2CCOCC2)CC1` [Example 32, N-(4-Fluorobenzyl)-3-hydroxy-4-oxo-10-((tetrahydro-2H-pyran-4-ylcarbonyl)amino)-4,6,7,8,9,10-hexahydro-7,10-ethanopyrimido[1,2-a]azepine-2-carboxamide] was run?
A: < 10 nM

Q: With `Cc1ncoc1C(=O)NC12CCC(CC1)Cn1c2nc(C(=O)NCc2ccc(F)cc2)c(O)c1=O` [Example 34, N-(4-Fluorobenzyl)-3-hydroxy-10-(((4-methyl-1,3-oxazol-5-yl)carbonyl)amino)-4-oxo-4,6,7,8,9,10-hexahydro-7,10-ethanopyrimido[1,2-a]azepine-2-carboxamide] as the compound, how does the IC50 read?
A: < 10 nM

Q: Which IC50 does the source give for `O=C(NC12CCC(CC1)Cn1c2nc(C(=O)NCc2ccc(F)cc2)c(O)c1=O)c1ccncc1` [Example 35, N-(4-Fluorobenzyl)-3-hydroxy-4-oxo-10-((4-pyridinylcarbonyl)amino)-4,6,7,8,9,10-hexahydro-7,10-ethanopyrimido[1,2-a]azepine-2-carboxamide] here?
A: < 10 nM

Q: For `O=C(NC12CCC(CC1)Cn1c2nc(C(=O)NCc2ccc(F)cc2)c(O)c1=O)c1ccccc1` [Example 36, N-(4-Fluorobenzyl)-3-hydroxy-4-oxo-10-((phenylcarbonyl)amino)-4,6,7,8,9,10-hexahydro-7,10-ethanopyrimido[1,2-a]azepine-2-carboxamide], which IC50 is on record?
A: < 10 nM

Q: Which IC50 does the source give for `Cc1cc(C(=O)NC23CCC(CC2)Cn2c3nc(C(=O)NCc3ccc(F)cc3-n3ncnc3C)c(O)c2=O)no1` [Example 37, N-(4-Fluoro-2-(5-methyl-1H-1,2,4-triazol-1-yl)benzyl)-3-hydroxy-10-(((5-methyl-3-isoxazolyl)carbonyl)amino)-4-oxo-4,6,7,8,9,10-hexahydro-7,10-ethanopyrimido[1,2-a]azepine-2-carboxamide] here?
A: 10 to 100 nM

Q: Which IC50 does the source give for `Cc1ncnn1-c1cc(F)ccc1CNC(=O)c1nc2n(c(=O)c1O)CC1CCC2(NS(C)(=O)=O)CC1` [Example 39, N-(4-Fluoro-2-(5-methyl-1H-1,2,4-triazol-1-yl)benzyl)-3-hydroxy-10-((methylsulfonyl)amino)-4-oxo-4,6,7,8,9,10-hexahydro-7,10-ethanopyrimido[1,2-a]azepine-2-carboxamide] here?
A: < 10 nM

Q: `CN(C)S(=O)(=O)NC12CCC(CC1)Cn1c2nc(C(=O)NCc2ccc(F)cc2)c(O)c1=O` [Example 40, 10-((Dimethylsulfamoyl)amino)-N-(4-fluorobenzyl)-3-hydroxy-4-oxo-4,6,7,8,9,10-hexahydro-7,10-ethanopyrimido[1,2-a]azepine-2-carboxamide] was tested. Which IC50 did it give?
A: < 10 nM

Q: With `O=C(CN1CCCC1=O)NC12CCC(CC1)Cn1c2nc(C(=O)NCc2ccc(F)cc2)c(O)c1=O` [Example 43, N-(4-Fluorobenzyl)-3-hydroxy-4-oxo-10-(((2-oxo-1-pyrrolidinyl)acetyl)amino)-4,6,7,8,9,10-hexahydro-7,10-ethanopyrimido[1,2-a]azepine-2-carboxamide] as the compound, how does the IC50 read?
A: < 10 nM

Q: For `Cn1cccc1C(=O)C(=O)NC12CCC(CC1)Cn1c2nc(C(=O)NCc2ccc(F)cc2)c(O)c1=O` [Example 45, N-(4-Fluorobenzyl)-3-hydroxy-10-(((1-methyl-1H-pyrrol-2-yl) (oxo)acetyl)amino)-4-oxo-4,6,7,8,9,10-hexahydro-7,10-ethanopyrimido[1,2-a]azepine-2-carboxamide], which IC50 is on record?
A: < 10 nM

Q: Which IC50 does the source give for `O=C1CC[C@@H](C(=O)NC23CCC(CC2)Cn2c3nc(C(=O)NCc3ccc(F)cc3)c(O)c2=O)N1` [Example 46, N-(4-Fluorobenzyl)-3-hydroxy-4-oxo-10-((5-oxoprolyl)amino)-4,6,7,8,9,10-hexahydro-7,10-ethanopyrimido[1,2-a]azepine-2-carboxamide] here?
A: < 10 nM

Q: `COc1cnc(Cl)c2[nH]cc(C(=O)C(=O)NC34CCC(CC3)Cn3c4nc(C(=O)NCc4ccc(F)cc4)c(O)c3=O)c12` [Example 47, 10-(((7-Chloro-4-methoxy-1H-pyrrolo[2,3-c]pyridin-3-yl)(oxo)acetyl)amino)-N-(4-fluorobenzyl)-3-hydroxy-4-oxo-4,6,7,8,9,10-hexahydro-7,10-ethanopyrimido[1,2-a]azepine-2-carboxamide] was tested. Which IC50 did it give?
A: < 10 nM

Q: With `Cn1ccnc1C(=O)NC12CCC(CC1)Cn1c2nc(C(=O)NCc2ccc(F)cc2)c(O)c1=O` [Example 49, N-(4-Fluorobenzyl)-3-hydroxy-10-(((1-methyl-1H-imidazol-2-yl)carbonyl)amino)-4-oxo-4,6,7,8,9,10-hexahydro-7,11-ethanopyrimido[1,2-a]azepine-2-carboxamide] as the compound, how does the IC50 read?
A: < 10 nM

Q: With `CN(CC(F)(F)F)C(=O)C(=O)NC12CCC(CC1)Cn1c2nc(C(=O)NCc2ccc(F)cc2)c(O)c1=O` [Example 50, N′-(2-((4-Fluorobenzyl)carbamoyl)-3-hydroxy-4-oxo-6,7,8,9-tetrahydro-7,10-ethanopyrimido[1,2-a]azepin-10(4H)-yl)-N-methyl-N-(2,2,2-trifluoroethyl)ethanediamide] as the compound, how does the IC50 read?
A: < 10 nM

Q: `Cc1cc(CNC(=O)c2nc3n(c(=O)c2O)CC2CCC3(NC(=O)C(=O)N(C)CC(F)(F)F)CC2)ccc1F` [Example 51, N′-(2-((4-Fluoro-3-methylbenzyl)carbamoyl)-3-hydroxy-4-oxo-6,7,8,9-tetrahydro-7,10-ethanopyrimido[1,2-a]azepin-10(4H)-yl)-N-methyl-N-(2,2,2-trifluoroethyl)ethanediamide] was tested. Which IC50 did it give?
A: < 10 nM

Q: How did the IC50 turn out when `CN(CCF)C(=O)C(=O)NC12CCC(CC1)Cn1c2nc(C(=O)NCc2ccc(F)cc2)c(O)c1=O` [Example 52, N′-(2-((4-Fluorobenzyl)carbamoyl)-3-hydroxy-4-oxo-6,7,8,9-tetrahydro-7,10-ethanopyrimido[1,2-a]azepin-10(4H)-yl)-N-(2-fluoroethyl)-N-methylethanediamide] was run?
A: < 10 nM

Q: `Cc1nnc(C(=O)NC23CCC(CC2)Cn2c3nc(C(=O)NCc3ccc(F)cc3)c(O)c2=O)o1` [Example 53, N-(4-Fluorobenzyl)-3-hydroxy-10-(((5-methyl-1,3,4-oxadiazol-2-yl)carbonyl)amino)-4-oxo-4,6,7,8,9,10-hexahydro-7,11-ethanopyrimido[1,2-a]azepine-2-carboxamide] was tested. Which IC50 did it give?
A: < 10 nM

Q: For `Cn1cnc(C(=O)NC23CCC(CC2)Cn2c3nc(C(=O)NCc3ccc(F)cc3)c(O)c2=O)n1` [Example 54, N-(4-Fluorobenzyl)-3-hydroxy-10-(((1-methyl-1H-1,2,4-triazol-3-yl)carbonyl)amino)-4-oxo-4,6,7,8,9,10-hexahydro-7,10-ethanopyrimido[1,2-a]azepine-2-carboxamide], which IC50 is on record?
A: < 10 nM

Q: With `CN(C)C(=O)C(=O)NC12CCC(CC1)Cn1c2nc(C(=O)NCc2cc(Br)c(F)cc2Br)c(O)c1=O` [Example 56, N′-(2-((2,5-Dibromo-4-fluorobenzyl)carbamoyl)-3-hydroxy-4-oxo-6,7,8,9-tetrahydro-7,10-ethanopyrimido[1,2-a]azepin-10(4H)-yl)-N,N-dimethylethanediamide] as the compound, how does the IC50 read?
A: < 10 nM

Q: For `CN(C)C(=O)C(=O)NC12CCC(CC1)Cn1c2nc(C(=O)NCc2ccc(F)cc2)c(O)c1=O` [Example 57, N′-(2-((4-Fluorobenzyl)carbamoyl)-3-hydroxy-4-oxo-6,7,8,9-tetrahydro-7,10-ethanopyrimido[1,2-a]azepin-10(4H)-yl)-N,N-dimethylethanediamide], which IC50 is on record?
A: < 10 nM

Q: `O=C(NC12CCC(CC1)Cn1c2nc(C(=O)NCc2ccc(F)cc2)c(O)c1=O)C(=O)N1CCCC1` [Example 58, N-(4-Fluorobenzyl)-3-hydroxy-4-oxo-10-((oxo(1-pyrrolidinyl)acetyl)amino)-4,6,7,8,9,10-hexahydro-7,10-ethanopyrimido[1,2-a]azepine-2-carboxamide] was tested. Which IC50 did it give?
A: < 10 nM

Q: For `O=C(NC12CCC(CC1)Cn1c2nc(C(=O)NCc2ccc(F)cc2)c(O)c1=O)C(=O)N1CCCCC1` [Example 59, N-(4-Fluorobenzyl)-3-hydroxy-4-oxo-10-((oxo(1-piperidinyl)acetyl)amino)-4,6,7,8,9,10-hexahydro-7,10-ethanopyrimido[1,2-a]azepine-2-carboxamide], which IC50 is on record?
A: < 10 nM

Q: For `O=C(NC12CCC(CC1)Cn1c2nc(C(=O)NCc2ccc(F)cc2)c(O)c1=O)C(=O)N1CCOCC1` [Example 60, N-(4-Fluorobenzyl)-3-hydroxy-10-((4-morpholinyl(oxo)acetyl)amino)-4-oxo-4,6,7,8,9,10-hexahydro-7,10-ethanopyrimido[1,2-a]azepine-2-carboxamide], which IC50 is on record?
A: < 10 nM

Q: `CNC(=O)C(=O)NC12CCC(CC1)Cn1c2nc(C(=O)NCc2ccc(F)cc2)c(O)c1=O` [Example 61, N-(2-((4-Fluorobenzyl)carbamoyl)-3-hydroxy-4-oxo-6,7,8,9-tetrahydro-7,10-ethanopyrimido[1,2-a]azepin-10(4H)-yl)-N′-methylethanediamide] was tested. Which IC50 did it give?
A: < 10 nM

Q: How did the IC50 turn out when `O=C(NC12CCC(CC1)Cn1c2nc(C(=O)NCc2ccc(F)cc2)c(O)c1=O)C(=O)N1CCNCC1` [Example 62, N-(4-Fluorobenzyl)-3-hydroxy-4-oxo-10-((oxo(1-piperazinyl)acetyl)amino)-4,6,7,8,9,10-hexahydro-7,10-ethanopyrimido[1,2-a]azepine-2-carboxamide] was run?
A: < 10 nM
